Measurements from US11926613B2, “Kinase inhibitors for the treatment of central and peripheral nervous system disorders” (UNIVERSITY OF MIAMI, priority 2017, dated 2024).
Like-named read-outs stand apart in the source and are kept apart here.

Legend:
[1] = system: Primary Neurons; experiment: HCS neurite outgrowth assay (High Content Screening with Primary Neurons); assay type: cell-based
[2] = system: neurons from hippocampi of E18 rat embryos; experiment: Neurite growth length (% NTL) in cultured E18 rat hippocampal neurons, 9-point dose response, 48 hours; assay type: cell-based; conditions: for activity at 0.078 µM / activity at 0.156 µM / activity at 0.312 µM / activity at 0.625 µM / activity at 1.25 µM / activity at 2.5 µM / activity at 5 µM / activity at 10 µM / activity at 20 µM: Rattus norvegicus, Neuron, 48 h
Description: PRE-COATING CULTURE PLATES: On the day before the experiment, 96-well plates were pre-coated by plating 50 μl of Poly-D-lysine solution (PDL, 0.5 mg/mL) in each well. The next morning, the plates were washed four or five times with HBSS or PBS (150 μl/rinse), then left in buffer until cell plating
PREPARING THE CELLS: A timed pregnant rat carrying E18 embryos was euthanized using an IACUC approved method. In a laminar flow hood, the embryos were removed and placed in a petri dish containing Hank's Balanced Salt Solution (HBSS) with 20 mM HEPES, pH 7.3. Pup brains were dissected (see Meberg et al., 2003) and hippocampi were collected in 15 mL a conical tube containing Hibernate E with SM1 (2% v/v).
Dissociation media was prepared by combining 4.5 mL of Hibernate E (without SM1) with 0.5 mL of trypsin and 100 μl of DNAse solution. The medium over the hippocampi was carefully removed and replaced with dissociation solution, then incubated at 37° C. for 15-20 minutes, occasionally swirling the tube.
Using flame polished cotton plugged Pasteur pipettes, the dissociation media was removed, and then 5 mL of Hibernate E containing SM1 were added. The tube was swirled to thoroughly wash the tissue. The tissue was allowed to settle to the bottom of the tube, and the rinse solution was carefully removed. This step was repeated 5 times to dilute out trypsin and DNAse and remove any debris from lysed cells.
The final rinse media was removed from the tube and 1 pipette-full (1-2 mL) of Hibernate E with SM1 was added. Using the flame-polished Pasteur pipette (pre-wetted with rinse media), the tube was triturated until all cells had dissociated and no visible chunks of tissue remained. Fewer than ten triturations were typically performed. The volume was adjusted to 8-12 mL using Hibernate E containing SM1, the well was mixed and cell concentration was determined.
PLATING: The cells were diluted in culture media (NbActiv4 Cell-culture media) to a final concentration of 10,000 cells/mL. The HBSS was aspirated from PDL coated plates, and 150 μL of cell solution was loaded in the middle 48 wells at 1500 cells per well. Water was loaded in the outer wells to decrease evaporation from edge wells. Cells were allowed to adhere for 2 hours in tissue culture incubator prior to treatment.
TREATMENT: Compounds were diluted to various concentrations to provide 9 dose response concentrations of 20 μM, 10 μM, 5, μM, 2.5 μM, 1.25 μM, 0.625 μM, 0.3125 μM, 0.15625 μM, and 0.078125 μM. The plates were cultured for 48 hours, exposed to the compound at the various dose response concentrations.
FIXING THE CULTURES: The culture medium was removed from the plates and immediately replaced with 100-200 μl of warm (37° C.) 4% paraformaldehyde (PFA) solution in phosphate-buffered saline (PBS). The cells were fixed for 15-20 minutes at room temperature, and then rinsed with PBS (200 μl/well×3).
STAINING AND IMAGING: The PBS was removed and replaced with 100 μl of blocking/permeabilization buffer (PBS, 0.2% fish gelatin, 0.03% Triton X-100, 0.02% NaN3), then incubated overnight at 4° C. To this was added 100 μl of primary antibody solution (mouse anti-Beta III tubulin in blocking buffer) and incubate overnight at 4° C. The wells were rinsed with PBS (200 μl×3), which was then removed and replaced with 100 μl of secondary antibody solution (Goat anti-mouse Alexa 488, 10 μg/ml Hoechst 33342, 0.2% fish gelatin, 0.02% azide, in PBS). The plate was shaken gently on a rotating shaker for 2 hours, then rinsed with PBS (200 μl×5).
The plate was imaged using a Cellomics ArrayScan VTI in 2 different channels for nuclear staining (Hoechst) and cell body/neurite staining (βIII-tubulin). Typically, nine fields per well were imaged with a 5× objective and automatically traced by the Neuronal Profiling Bioapplication. To get reproducible results, at least 200-300 valid neurons were measured per condition. […]

## COc1ccc(O)c(C(=O)c2ccc(C(=O)N[C@@H]3CNC[C@H]3NC(=O)c3ccc(O)nc3)cc2)c1F [Example A39, N-[(3R,4R)-4-[4-(2-fluoro-6-hydroxy-3-methoxybenzoyl)benzamido]pyrrolidin-3-yl]-6-hydroxypyridine-3-carboxamide]
[1]; Primary neuron
  EC50: 3.76 µM
[2]; 78 nM
  activity at 0.078 µM: 96.3%
[2]; 156 nM
  activity at 0.156 µM: 93%
[2]; 312 nM
  activity at 0.312 µM: 85.5%
[2]; 625 nM
  activity at 0.625 µM: 80.5%
[2]; 1.25 μM
  activity at 1.25 µM: 83%
[2]; 2.5 μM
  activity at 2.5 µM: 87.3%
[2]; 5 μM
  activity at 5 µM: 98%
[2]; 10 μM
  activity at 10 µM: 98.9%
[2]; 20 μM
  activity at 20 µM: 101%

## O=C(N[C@@H]1CNC[C@H]1NC(=O)c1ccc(C(=O)c2ccccc2O)cc1)c1ccncc1 [Example A86, N-[(3R,4R)-4-[4-(2-hydroxybenzoyl)benzamido]pyrrolidin-3-yl]pyridine-4-carboxamide]
[1]; Primary neuron
  EC50: 11.9 µM
[2]; 78 nM
  activity at 0.078 µM: 124%
[2]; 156 nM
  activity at 0.156 µM: 135%
[2]; 312 nM
  activity at 0.312 µM: 126%
[2]; 625 nM
  activity at 0.625 µM: 134%
[2]; 1.25 μM
  activity at 1.25 µM: 136%
[2]; 2.5 μM
  activity at 2.5 µM: 158%
[2]; 5 μM
  activity at 5 µM: 185%
[2]; 10 μM
  activity at 10 µM: 271%
[2]; 20 μM
  activity at 20 µM: 379%

## COc1ccc(O)c(C(=O)c2ccc(C(=O)N[C@@H]3CNC[C@H]3NC(=O)c3ccncc3)cc2)c1 [Example A77, N-[(3R,4R)-4-[4-(2-hydroxy-5-methoxybenzoyl)benzamido]pyrrolidin-3-yl]pyridine-4-carboxamide]
[1]; Primary neuron
  EC50: 10.4 µM
[2]; 78 nM
  activity at 0.078 µM: 118%
[2]; 156 nM
  activity at 0.156 µM: 125%
[2]; 312 nM
  activity at 0.312 µM: 133%
[2]; 625 nM
  activity at 0.625 µM: 144%
[2]; 1.25 μM
  activity at 1.25 µM: 159%
[2]; 2.5 μM
  activity at 2.5 µM: 187%
[2]; 5 μM
  activity at 5 µM: 263%
[2]; 10 μM
  activity at 10 µM: 469%
[2]; 20 μM
  activity at 20 µM: 653%

## COc1ccc(OC)c(C(=O)c2ccc(C(=O)N[C@@H]3CCC[C@H]3NC(=O)c3ccncc3)cc2)c1F [Example A17, N-[(1R,2R)-2-[4-(2-fluoro-3,6-dimethoxybenzoyl)benzamido]cyclopentyl] pyridine-4-carboxamide]
[1]; Primary neuron
  EC50: 1.83 µM
[2]; 78 nM
  activity at 0.078 µM: 99.7%
[2]; 156 nM
  activity at 0.156 µM: 100%
[2]; 312 nM
  activity at 0.312 µM: 104%
[2]; 625 nM
  activity at 0.625 µM: 99.8%
[2]; 1.25 μM
  activity at 1.25 µM: 103%
[2]; 2.5 μM
  activity at 2.5 µM: 113%
[2]; 5 μM
  activity at 5 µM: 112%
[2]; 10 μM
  activity at 10 µM: 121%
[2]; 20 μM
  activity at 20 µM: 119%

## COc1ccc(O)c(C(=O)c2ccc(C(=O)N[C@@H]3CNC[C@H]3NC(=O)c3ccnc(N)n3)cc2)c1F [Example A36, 2-amino-N-[(3R,4R)-4-[4-(2-fluoro-6-hydroxy-3-methoxybenzoyl)benzamido]pyrrolidin-3-yl]pyrimidine-4-carboxamide]
[1]; Primary neuron
  EC50: 1.83 µM
[2]; 78 nM
  activity at 0.078 µM: 116%
[2]; 156 nM
  activity at 0.156 µM: 126%
[2]; 312 nM
  activity at 0.312 µM: 131%
[2]; 625 nM
  activity at 0.625 µM: 149%
[2]; 1.25 μM
  activity at 1.25 µM: 239%
[2]; 2.5 μM
  activity at 2.5 µM: 358%
[2]; 5 μM
  activity at 5 µM: 516%
[2]; 10 μM
  activity at 10 µM: 480%
[2]; 20 μM
  activity at 20 µM: 470%

## COc1ccc(O)c(C(=O)c2ccc(C(=O)N[C@@H]3CCCC[C@H]3NC(=O)c3ccncc3)cc2)c1F [Example A22]
[1]; Primary neuron
  EC50: 2.61 µM
[2]; 78 nM
  activity at 0.078 µM: 89.3%
[2]; 156 nM
  activity at 0.156 µM: 91.8%
[2]; 312 nM
  activity at 0.312 µM: 92.3%
[2]; 625 nM
  activity at 0.625 µM: 86.2%
[2]; 1.25 μM
  activity at 1.25 µM: 85.5%
[2]; 2.5 μM
  activity at 2.5 µM: 85.5%
[2]; 5 μM
  activity at 5 µM: 88.7%
[2]; 10 μM
  activity at 10 µM: 91.1%
[2]; 20 μM
  activity at 20 µM: 94.7%

## Nc1nccc(C(=O)N[C@@H]2CNC[C@H]2NC(=O)c2ccc(C(=O)c3ccccc3O)c(Cl)c2)n1 [Example A66, 2-amino-N-[(3R,4R)-4-[3-chloro-4-(2-hydroxybenzoyl)benzamido]pyrrolidin-3-yl]pyrimidine-4-carboxamide]
[1]; Primary neuron
  EC50: 2.33 µM
[2]; 78 nM
  activity at 0.078 µM: 113%
[2]; 156 nM
  activity at 0.156 µM: 107%
[2]; 312 nM
  activity at 0.312 µM: 122%
[2]; 625 nM
  activity at 0.625 µM: 111%
[2]; 1.25 μM
  activity at 1.25 µM: 122%
[2]; 2.5 μM
  activity at 2.5 µM: 129%
[2]; 5 μM
  activity at 5 µM: 129%
[2]; 10 μM
  activity at 10 µM: 145%
[2]; 20 μM
  activity at 20 µM: 161%

## O=C(N[C@@H]1CNC[C@H]1NC(=O)c1ccc(C(=O)c2cccc(Cl)c2O)cc1)c1ccncc1 [Example A71, N-[(3R,4R)-4-[4-(3-chloro-2-hydroxybenzoyl)benzamido]pyrrolidin-3-yl]pyridine-4-carboxamide]
[1]; Primary neuron
  EC50: 2.15 µM
[2]; 78 nM
  activity at 0.078 µM: 94.8%
[2]; 156 nM
  activity at 0.156 µM: 99%
[2]; 312 nM
  activity at 0.312 µM: 105%
[2]; 625 nM
  activity at 0.625 µM: 109%
[2]; 1.25 μM
  activity at 1.25 µM: 102%
[2]; 2.5 μM
  activity at 2.5 µM: 109%
[2]; 5 μM
  activity at 5 µM: 119%
[2]; 10 μM
  activity at 10 µM: 117%
[2]; 20 μM
  activity at 20 µM: 124%

## COc1ccc(OC)c(C(=O)c2ccc(C(=O)O[C@@H]3CN(C)C[C@H]3NC(=O)c3ccncc3)cc2)c1F [Example A28, (3R,4R)-1-methyl-4-(pyridine-4-amido)pyrrolidin-3-yl 4-(2-fluoro-3,6-dimethoxybenzoyl)benzoate]
[1]; Primary neuron
  EC50: 4.72 µM
[2]; 78 nM
  activity at 0.078 µM: 97.8%
[2]; 156 nM
  activity at 0.156 µM: 113%
[2]; 312 nM
  activity at 0.312 µM: 103%
[2]; 625 nM
  activity at 0.625 µM: 83.7%
[2]; 1.25 μM
  activity at 1.25 µM: 103%
[2]; 2.5 μM
  activity at 2.5 µM: 118%
[2]; 5 μM
  activity at 5 µM: 133%
[2]; 10 μM
  activity at 10 µM: 137%
[2]; 20 μM
  activity at 20 µM: 139%

## COc1ccc(O)c(C(=O)c2ccc(C(=O)N[C@H]3CNC[C@@H]3NC(=O)c3ccncc3)cc2)c1F (stereo in doubt) [Example A34, N-[(3S,4S)-4-[4-(2-fluoro-6-hydroxy-3-methoxybenzoyl)benzamido]pyrrolidin-3-yl]pyridine-4-carboxamide]
[1]
  EC50: 13 µM
[2]; 78 nM
  neurite growth length (% NTL): 102.90 % NTL
[2]; 156 nM
  neurite growth length (% NTL): 102.77 % NTL
[2]; 312 nM
  neurite growth length (% NTL): 92.06 % NTL
[2]; 625 nM
  neurite growth length (% NTL): 92.27 % NTL
[2]; 1.25 μM
  neurite growth length (% NTL): 95.84 % NTL
[2]; 2.5 μM
  neurite growth length (% NTL): 105.94 % NTL
[2]; 5 μM
  neurite growth length (% NTL): 110.06 % NTL
[2]; 10 μM
  neurite growth length (% NTL): 118.29 % NTL
[2]; 20 μM
  neurite growth length (% NTL): 130.91 % NTL
